US7763657B2, “Compounds, isomer thereof, or pharmaceutically acceptable salts thereof as vanilloid receptor antagonist; and pharmaceutical compositions containing the same” (Amorepacific Corporation, priority 2005, dated 2010)

How the values were obtained:
Male ICR mice = assay: Analgesic activity test: mouse writhing test by inducing with phenyl-p-quinone; format: in vivo; conditions: ip, 0.5 h, number of writhes vs control, read-out: Analgesic effect (% Inhibition); for inhibition in vivo at 1 mg/kg: Dose 1 mg/kg intraperitoneally 30 min before phenyl-p-quinone
Protocol: 3. Analgesic Activity Test: Mouse Writhing Test by Inducing with phenyl-p-quinone
Male ICR mice (mean body weight 25 g) were maintained in a controlled lighting environment (12 h on/12 h off) for experiment. Animals received an intraperitoneal injection of 0.3 ml of the chemical irritant phenyl-p-quinone (dissolved in saline containing 5% ethanol to be a dose of 4.5 mg/kg) and 6 mins later, the number of abdominal constrictions was counted in the subsequent 6 mins period. Animals (10 animals/group) received 0.2 ml of test compounds solution in vehicle of ethanol/Tween 80/saline (10/10/80) intraperitoneally 30 min before the injection of phenyl-p-quinone. A reduction in the number of writhes responding to the test drug compound relative to the number responding in saline control group was considered to be indicative of an analgesic effect. Analgesic effect was calculated by % inhibition equation (% inhibition=(C−T)/C×100), wherein C and T represent the number of writhes in control and compound-treated group, respectively (Table 3).

vanilloid receptor = target: T1, vanilloid receptor (Rattus norvegicus, UniProt O35433); assay: 45Ca influx test (calcium uptake) in primary cultured DRG neurons, antagonism of capsaicin; format: cell-based; conditions: neonatal SD rat DRG nerve cells; capsaicin 0.5 μM; 45Ca 10 μCi/ml; 10 mins room temperature; read-out: Antagonist Calcium Uptake Test (IC50)
T1 construct: DRG nerve cells from the primary culture of 2 days were equilibrated; endogenous in cells; host or cells: primary cultured dorsal root ganglion neurons of neonatal SD rats
Protocol: 1) Separation of Spinal Dorsal Root Ganglia (DRG) in Newborn Rats and Primary Culture Thereof
Neonatal (2-3 day old or younger than 2-3 day old) SD rats were put in ice for 5 minutes to anesthetize and disinfected with 70% ethanol. […] The DRG were incubated sequentially at 37° C. for 30 min in 200 U/ml collagenase and 2.5 mg/ml trypsin, separately. The ganglia were washed twice with DME/F12 medium supplemented with 10% horse serum, triturated through a fire-polished Pasteur pipette, filtered through Nitex 80 membrane to obtain single cell suspension and the suspension was washed once more. This was subjected to centrifugation, then resuspended in cell culture medium at certain level of cell density. As the cell culture medium, DME/F12 medium supplemented with 10% horse serum was diluted with identical medium conditioned by C6 glioma cells 2 days on a confluent monolayer (1:1), and NGF (Nerve Growth Factor) was added to adjust 200 ng/ml as final concentration. After the cells were grown 2 days in medium where cytosine arabinoside (Ara-C, 100 μM) was added to kill dividing nonneuronal cells, medium was changed to one without Ara-C. The resuspended cells were plated at a density of 1500-2000 neurons/well onto Terasaki plates previously coated with 10 μg/ml poly-D-ornithine.
2) ^45Ca Influx Experiments
DRG nerve cells from the primary culture of 2 days were equilibrated by washing 4 times with HEPES (10 mM, pH 7.4)-buffered Ca^2+, Mg^2+-free HBSS (H—HBSS). The solution in each well was removed from the individual well. Medium containing the test compound plus capsaicin (final concentration 0.5 μM) and ^45Ca (final concentration 10 μCi/ml) in H—HBSS was added to each well and incubated at room temperature for 10 mins. Terasaki plates were washed five times with H—HBSS and dried at room temperature. To each well, 0.3% SDS (10 μl) was added to elute ^45Ca. After the addition of scintillation cocktail of into each well, the amount of ^45Ca influx into neuron was measured by counting radioactivity.

T1 sequence (O35433 whole entry): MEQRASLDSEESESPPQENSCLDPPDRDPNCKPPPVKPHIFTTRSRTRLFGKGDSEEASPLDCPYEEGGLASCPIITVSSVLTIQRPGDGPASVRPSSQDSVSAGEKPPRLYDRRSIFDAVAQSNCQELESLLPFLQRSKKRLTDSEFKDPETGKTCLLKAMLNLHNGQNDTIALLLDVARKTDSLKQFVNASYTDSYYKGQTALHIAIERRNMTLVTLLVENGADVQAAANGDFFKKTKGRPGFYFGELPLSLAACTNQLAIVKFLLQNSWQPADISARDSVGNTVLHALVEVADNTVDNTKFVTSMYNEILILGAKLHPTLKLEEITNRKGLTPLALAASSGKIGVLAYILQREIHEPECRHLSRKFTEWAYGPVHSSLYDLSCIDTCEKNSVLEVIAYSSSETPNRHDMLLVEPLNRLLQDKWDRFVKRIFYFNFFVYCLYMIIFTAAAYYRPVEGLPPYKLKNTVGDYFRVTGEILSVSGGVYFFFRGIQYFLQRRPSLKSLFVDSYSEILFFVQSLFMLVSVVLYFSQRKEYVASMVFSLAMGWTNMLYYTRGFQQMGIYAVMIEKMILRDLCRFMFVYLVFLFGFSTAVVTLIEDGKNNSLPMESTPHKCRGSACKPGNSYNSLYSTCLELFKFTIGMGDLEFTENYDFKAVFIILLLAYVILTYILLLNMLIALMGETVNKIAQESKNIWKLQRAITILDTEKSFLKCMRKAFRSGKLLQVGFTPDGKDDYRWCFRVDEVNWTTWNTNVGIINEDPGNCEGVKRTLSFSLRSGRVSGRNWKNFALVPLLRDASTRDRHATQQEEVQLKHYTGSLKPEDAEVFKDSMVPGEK

IC50 (vanilloid receptor) [nM] | SMILES | inhibition in vivo at 0.3 mg/kg (Male ICR mice; Dose 0.3 mg/kg intraperitoneally 30 min before phenyl-p-quinone) [%] | inhibition in vivo at 1 mg/kg (Male ICR mice) [%]
98 | C=Cc1cc(CNC(=O)NCc2ccc(C(C)(C)C)cc2)cc(F)c1NS(C)(=O)=O [Example 2, N-{4-[3-(4-t-butylbenzyl)ureidomethyl]-2-fluoro-6-vinylphenyl}methanesulfonamide] | 57 | 
50 | C=Cc1cc([C@@H](C)NC(=O)/C=C/c2ccc(C(C)(C)C)cc2)ccc1NS(C)(=O)=O [Example 14, 3-(4-t-butylphenyl)-N-[1-(R)-(4-methanesulfonylamino-3-vinylphenyl)ethyl]acrylamide] |  | 58
47 | C#Cc1cc(CNC(=O)/C=C/c2ccc(C(C)(C)C)cc2)cc(F)c1NS(C)(=O)=O [Example 16, 3-(4-t-butylphenyl)-N-(3-fluoro-5-ethynyl-4-methanesulfonylamino-benzyl)acrylamide] |  | 68
43 | C=Cc1cc(CNC(=O)CCc2ccc(C(C)(C)C)cc2OC2CCOCC2)cc(F)c1NS(C)(=O)=O [Example 41, 3-[4-tert-Butyl-2-(tetrahydropyran-4-yloxy)phenyl]-N-(3-fluoro-4-methanesulfonylamino-5-vinylbenzyl)propionamide] |  | 44

Second part, the compound before the results:

SMILES | IC50 (vanilloid receptor) [nM] | inhibition in vivo at 0.3 mg/kg (Male ICR mice; Dose 0.3 mg/kg intraperitoneally 30 min before phenyl-p-quinone) [%] | inhibition in vivo at 1 mg/kg (Male ICR mice) [%]
C=Cc1cc([C@@H](C)NC(=O)NCc2ccc(C(C)(C)C)cc2)ccc1NS(C)(=O)=O [Example 6, N-(4-{1-(R)-[3-(4-t-butylbenzyl)ureido]ethyl}-2-vinylphenyl)methanesulfonamide] | 82 |  | 56
C=Cc1cc(CNC(=O)/C=C/c2ccc(C(C)(C)C)cc2)cc(F)c1NS(C)(=O)=O [Example 15, 3-(4-t-butylphenyl)-N-(3-fluoro-4-methanesulfonylamino-5-vinylbenzyl)acrylamide] | 34 |  | 60
C=Cc1cc(CNC(=O)/C=C/c2ccc(C(C)(C)C)cc2)ccc1NS(C)(=O)=O [Example 17, 3-(4-t-butylphenyl)-N-(4-methanesulfonylamino-3-vinylbenzyl)acryl amide] | 58 |  | 63
C=Cc1cc(CNC(=O)/C=C/c2ccc(C(C)(C)C)cc2N2CCN(C)CC2)cc(F)c1NS(C)(=O)=O [Example 25, 3-[4-tert-Butyl-2-(4-methylpiperazin-1-yl)phenyl]-N-(3-fluoro-4-methanesulfonylamino-5-vinylbenzyl)acrylamide] |  |  | 64
C=Cc1cc(CNC(=O)CCc2ccc(C(C)(C)C)cc2)ccc1NS(C)(=O)=O [Example 45, 3-[4-(tert-butyl)phenyl]-N-[4-(methanesulfonylamino)-3-vinylbenzyl]propionamide] | 63 |  | 82
C=Cc1cc(CNC(=O)CCc2ccc(C(C)(C)C)cc2)cc(F)c1NS(C)(=O)=O [Example 46, 3-[4-(tert-butyl)phenyl]-N-[3-fluoro-4-(methanesulfonylamino)-5-vinylbenzyl]propionamide] | 25 |  | 43
